We go through 67 compounds from US9149465B2, “Isoxazolines as inhibitors of fatty acid amide hydrolase” (Infinity Pharmaceuticals, Inc., priority 2009, dated 2015).

By pKi is commonly meant the negative decadic logarithm of the Ki, by convention in mol/L.

The structures appear in SMILES notation. pKi: −log10 of the molar value. A value given as a limit tells only on which side of the number the result lay.

The experiment concerns the target T1, human FAAH (Homo sapiens, UniProt O00519).
T1 construct: host or cells: COS-7 cells, transient transfection; 13,000 g membrane fraction solubilised in 1% Triton X-100
T1 sequence (O00519 1-579): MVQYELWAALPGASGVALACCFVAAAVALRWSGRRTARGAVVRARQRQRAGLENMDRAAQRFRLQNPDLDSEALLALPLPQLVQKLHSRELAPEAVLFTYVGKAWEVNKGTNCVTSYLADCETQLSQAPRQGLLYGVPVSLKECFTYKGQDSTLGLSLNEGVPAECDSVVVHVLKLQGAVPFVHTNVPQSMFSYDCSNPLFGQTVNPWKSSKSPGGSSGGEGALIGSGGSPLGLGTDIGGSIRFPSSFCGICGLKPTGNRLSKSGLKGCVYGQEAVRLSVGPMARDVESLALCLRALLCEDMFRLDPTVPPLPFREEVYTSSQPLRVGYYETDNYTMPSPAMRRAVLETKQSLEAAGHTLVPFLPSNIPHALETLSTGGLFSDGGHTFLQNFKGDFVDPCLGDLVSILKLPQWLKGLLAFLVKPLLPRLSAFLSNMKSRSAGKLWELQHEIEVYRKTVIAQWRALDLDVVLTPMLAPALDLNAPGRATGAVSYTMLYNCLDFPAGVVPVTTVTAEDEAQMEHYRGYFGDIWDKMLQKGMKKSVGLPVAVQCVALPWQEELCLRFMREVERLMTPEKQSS
Nature of the experiment: Inhibition of human FAAH (AMC arachidonoyl amide fluorescence assay). The settings on record: inhibitor preincubated 30 minutes at room temperature; 20 μM AMC arachidonoyl amide; 4 hours; read-out: Activity (Ki, inhibitors of human FAAH). Format: biochemical. In short, it runs like this: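 Solubilized membrane fraction from COS-7 cells transiently expressing human FAAH (0.05 mg/mL final) preincubated 30 min at room temperature with 3-fold serially diluted inhibitor, then reacted 4 h at room temperature with 20 μM AMC arachidonoyl amide. Stopped with α-ketoheterocycle; fluorescence read. Ki from single-site competitive fit, Km fixed at 12 μM.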
In the case of `O=C(c1ccc([C@H]2CC(Br)=NO2)cc1)N1CCOCC1` (racemic) [I-202], the pKi is 6.00 to 7.00.
Regarding `CN(C)C(=O)c1ccc([C@H]2CC(Br)=NO2)cc1` (racemic) [I-203], the pKi is not below 7.00.
In the case of `CNC(=O)c1ccc([C@H]2CC(Br)=NO2)cc1` (racemic) [I-204], the negative logarithm of the Ki (pKi) is 6.00 to 7.00.
For `O=S(=O)(c1ccc([C@H]2CC(Br)=NO2)cc1)N1CCOCC1` (racemic) [I-205], the pKi is not below 7.00.
Under `CN(C)S(=O)(=O)c1ccc([C@H]2CC(Br)=NO2)cc1` (racemic) [I-206] stands not below 7.00.
In the case of `CNS(=O)(=O)c1ccc([C@H]2CC(Br)=NO2)cc1` (racemic) [I-207] it was not below 7.00.
As for `O=C(c1ccc([C@H]2CC(Br)=NO2)cc1)N1CCCCC1` (racemic) [I-208], the negative-log Ki (pKi) is not below 7.00.
For the compound `O=C(c1ccc([C@H]2CC(Br)=NO2)cc1)N1CCCC1` (racemic) [I-209], the negative-log Ki (pKi) is not below 7.00.
Under `O=S(=O)(c1ccc([C@H]2CC(Br)=NO2)cc1)N1CCCCC1` (racemic) [I-210] stands not below 7.00.
In the case of `O=S(=O)(c1ccc([C@H]2CC(Br)=NO2)cc1)N1CCCC1` (racemic) [I-211] it was not below 7.00; in that of `CN(C)C(=O)c1ccc(C2CC(Oc3ccc(S(C)(=O)=O)nc3)=NO2)cc1` (racemic) [I-212], 6.00 to 7.00.
Under `CN(C)S(=O)(=O)c1ccc([C@H]2CC(Oc3ccc(S(C)(=O)=O)nc3)=NO2)cc1` (racemic) [I-213] stands not below 7.00.
Take `CS(=O)(=O)c1ccc(OC2=NO[C@@H](c3ccc(C(=O)NCc4ccccc4)cc3)C2)cn1` (racemic) [I-214]: the negative logarithm of the Ki (pKi) was not below 7.00.
In the case of `O=C(NCc1ccccc1)c1ccc([C@H]2CC(Oc3ccc(C(=O)O)nc3)=NO2)cc1` (racemic) [I-215], the pKi was 6.00 to 7.00.
On to `FC(F)(F)c1ccc(C2CC(Oc3ccc(Br)nc3)=NO2)cc1` (racemic) [I-216], for which the negative-log Ki (pKi) was 6.00 to 7.00.
Under `FC(F)(F)c1ccc(C2CC(Oc3cccc(-c4nnco4)c3)=NO2)cc1` (racemic) [I-217] stands not below 7.00; under `Cn1cc(-c2ccc(OC3=NOC(c4ccc(OC(F)(F)F)cc4)C3)cn2)cn1` (racemic) [I-218], not below 7.00.
For the compound `Cn1cc(-c2ccc(OC3=NOC(c4ccc(C(F)(F)F)cc4)C3)cn2)cn1` (racemic) [I-219], the pKi is not below 7.00.
In the case of `CS(=O)(=O)NC(=O)c1ccc(OC2=NOC(c3ccc(OC(F)(F)F)cc3)C2)cn1` (racemic) [I-220] it was not below 7.00; in that of `FC(F)(F)Oc1ccc(C2CC(Oc3cccc(-n4cnnc4)c3)=NO2)cc1` (racemic) [I-221], not above 6.00.
Under `Cc1nnc(-c2cccc(OC3=NOC(C)(c4ccc(OC(F)(F)F)cc4)C3)c2)o1` (racemic) [I-222] stands not below 7.00; under `Cc1nnc(-c2cccc(OC3=NOC(c4ccc(OC(F)(F)F)cc4)C3)c2)o1` (racemic) [I-223], not below 7.00.
Take `Cc1nnc(-c2cc(F)cc(OC3=NOC(c4ccc(OC(F)(F)F)cc4)C3)c2)o1` (racemic) [I-224]: the negative logarithm of the Ki (pKi) was not below 7.00.
For the compound `Fc1cc(OC2=NOC(c3ccc(OC(F)(F)F)cc3)C2)cc(-c2nnco2)c1` (racemic) [I-225], the negative logarithm of the Ki (pKi) is not below 7.00.
As to `Fc1ccc(OC2=NOC(c3ccc(OC(F)(F)F)cc3)C2)cc1-c1nnco1` (racemic) [I-226], the pKi is not below 7.00.
In the case of `CC1(c2ccc(OC(F)(F)F)cc2)CC(Oc2ccc(F)c(-c3nnco3)c2)=NO1` (racemic) [I-227], the pKi was not below 7.00.
In the case of `CC1(c2ccc(OC(F)(F)F)cc2)CC(Oc2cncc(-c3nnco3)c2)=NO1` (racemic) [I-228], the pKi is not below 7.00.
As to `Cc1nnc(-c2cncc(OC3=NOC(C)(c4ccc(OC(F)(F)F)cc4)C3)c2)o1` (racemic) [I-229], the negative-log Ki (pKi) was not below 7.00.
Under `FC(F)(F)Oc1ccc(C2CC(Oc3cncc(-c4nnco4)c3)=NO2)cc1` (racemic) [I-230] stands not below 7.00; under `CC1(c2ccc(OC(F)(F)F)cc2)CC(Oc2cncc(-c3n[nH]c(=O)o3)c2)=NO1` (racemic) [I-231], 6.00 to 7.00.
Under `CC1(c2ccc(OC(F)(F)F)cc2)CC(Oc2cccc(-c3nnco3)c2)=NO1` (racemic) [I-232] stands not below 7.00; under `CN(C)S(=O)(=O)c1cccc(OC2=NOC(C)(c3ccc(OC(F)(F)F)cc3)C2)c1` (racemic) [I-233], not above 6.00; under `CC1(c2ccc(OC(F)(F)F)cc2)CC(Oc2ccc(S(C)(=O)=O)cc2)=NO1` (racemic) [I-234], 6.00 to 7.00.
In the case of `CN(C)S(=O)(=O)c1ccc(OC2=NOC(C)(c3ccc(OC(F)(F)F)cc3)C2)cc1` (racemic) [I-235] it was not above 6.00; in that of `FC(F)(F)Oc1ccc(C2CC(Oc3ccc(-c4cnn[nH]4)nc3)=NO2)cc1` (racemic) [I-236], not below 7.00.
In the case of `CS(=O)(=O)c1ccc(OC2=NO[C@@H](c3ccc(Br)cc3)C2)cn1` (racemic) [I-237], the pKi was not below 7.00.
As for `CSc1ccc(OC2=NOC(c3ccc(C(F)(F)F)cc3)C2)cn1` (racemic) [I-238], the pKi was not below 7.00.
In the case of `Cn1cc(-c2ccc(OC3=NOC(C)(c4ccc(OC(F)(F)F)cc4)C3)cn2)cn1` (racemic) [I-240] it was not below 7.00.
In the case of `Cn1nccc1-c1ccc(OC2=NOC(C)(c3ccc(OC(F)(F)F)cc3)C2)cn1` (racemic) [I-241] it was not below 7.00; in that of `CC1(c2ccc(OC(F)(F)F)cc2)CC(Oc2ccc(-c3ccn[nH]3)nc2)=NO1` (racemic) [I-242], not below 7.00.
Regarding `OCCNC1=NOC(c2ccc(Oc3ccccc3)cc2)C1` (racemic) [I-243], the pKi was 6.00 to 7.00.
On to `CN(CC(=O)O)C1=NOC(c2ccc(Oc3ccccc3)cc2)C1` (racemic) [I-244], for which the pKi is 6.00 to 7.00.
In the case of `O[C@H](CNC1=NOC(c2ccc(Oc3ccccc3)cc2)C1)c1ccccc1` (mixture of isomers) [I-245] it was not above 6.00; in that of `O[C@@H](CNC1=NOC(c2ccc(OC(F)(F)F)cc2)C1)c1ccccc1` (mixture of isomers) [I-246], not above 6.00.
In the case of `FC(F)(F)Oc1ccc(C2CC(Sc3ccccc3)=NO2)cc1` (racemic) [I-248], the negative-log Ki (pKi) was not above 6.00.
For `[O-][S+](C1=NOC(c2ccc(OC(F)(F)F)cc2)C1)c1ccccc1` (racemic) [I-249], the pKi was not above 6.00.
As for `O=S(=O)(C1=NOC(c2ccc(OC(F)(F)F)cc2)C1)c1ccccc1` (racemic) [I-250], the pKi is not above 6.00.
Under `O=C(O)c1ccc(SC2=NOC(c3ccc(OC(F)(F)F)cc3)C2)cc1` (racemic) [I-251] stands not above 6.00.
Under `CCN(C1=NOC(c2ccc(OC(F)(F)F)cc2)C1)c1ccccc1` (racemic) [I-253] stands not above 6.00; under `CN(C1=NOC(c2ccc(OC(F)(F)F)cc2)C1)c1ccc(C(=O)O)cc1` (racemic) [I-255], not above 6.00; under `c1ccc(Oc2ccc(C3CC(N4CCCC4)=NO3)cc2)cc1` (racemic) [I-256], not above 6.00.
With `Cn1nc(C(F)(F)F)cc1OC1=NOC(c2ccc(Oc3ccccc3)cc2)C1` (racemic) [I-257], the pKi is 6.00 to 7.00.
In the case of `FC(F)(F)Oc1ccc(C2CC(Oc3cccc(-c4nnco4)c3)=NO2)cc1` (racemic) [I-258] it was not below 7.00; in that of `Cc1nnc(-c2ccc(OC3=NOC(c4ccc(C(F)(F)F)cc4)C3)cn2)o1` (racemic) [I-259], not below 7.00.
Under `CSc1ccc(OC2=NOC(C)(c3ccc(OC(F)(F)F)cc3)C2)cn1` (racemic) [I-261] stands not below 7.00; under `BrC1=NOC(c2ccccc2)C1` (single isomer, unassigned) [I-1], 6.00 to 7.00.
Under `Clc1cccc(C2CC(Br)=NO2)c1` (single isomer, unassigned) [I-4] stands 6.00 to 7.00; under `Clc1ccccc1C1CC(Br)=NO1` (single isomer, unassigned) [I-5], 6.00 to 7.00; under `COc1cccc(C2CC(Br)=NO2)c1` (single isomer, unassigned) [I-7], 6.00 to 7.00.
Take `COc1ccccc1C1CC(Br)=NO1` (single isomer, unassigned) [I-8]: the pKi was not above 6.00.
Under `BrC1=NOC(c2ccc(Oc3ccccc3)cc2)C1` (single isomer, unassigned) [I-10] stands not below 7.00; under `BrC1=NOC(c2cccc(Oc3ccccc3)c2)C1` (single isomer, unassigned) [I-11], not below 7.00.
Under `BrC1=NOC(c2ccc(Oc3cccnc3)cc2)C1` (single isomer, unassigned) [I-12] stands not below 7.00; under `BrC1=NOC(c2ccc(Oc3ncccn3)cc2)C1` (single isomer, unassigned) [I-13], not below 7.00; under `ClC1=NOC(c2ccc(Oc3ccccc3)cc2)C1` (single isomer, unassigned) [I-17], not below 7.00.
In the case of `Cc1ccc(Oc2ccc(C3CC(Br)=NO3)cc2)nn1` (single isomer, unassigned) [I-18] it was 6.00 to 7.00.
Regarding `BrC1=NOC(c2ccc(-c3nnc(-c4ccccc4)o3)cc2)C1` (single isomer, unassigned) [I-19], the pKi was not below 7.00.
